Results reported in publication PMC9229294, “Pyridazinones and Structurally Related Derivatives with Anti-Inflammatory Activity” (Molecules, 2022).
Read-outs that look alike come from different tables or passages of the source.

Key:
[1] = Cytotoxicity, CellTiter-Glo, THP1-Blue cells; assay type: cell-based, human; settings: human, THP1-Blue cells; N.T. = no cytotoxicity at 50 µM; read-out: Cytotoxicity IC50 in THP1-Blue Cells
Method: (§1) Our studies included 175 compounds that were previously synthesized and characterized at NEUROFARBA, Pharmaceutical and Nutraceutical Section, University of Florence, Italy. We previously evaluated the FPR1/FPR2 agonist activity of these compounds by evaluating their ability to induce Ca^2+ mobilization in FPR-transfected HL60 cells and human neutrophils. […] All test compounds were dissolved in DMSO at stock concentrations of 10 mM and stored at −20 °C. For primary screening assays (analysis of NF-κB activation, IL-6 production, and cytotoxicity), the following final concentrations of the compounds were used: 3.125, 6.25, 12.5, 25, and 50 µM; the final concentration of DMSO was 1% in all samples.
(§2) The cytotoxicity was analyzed with a CellTiter-Glo Luminescent Cell Viability Assay Kit from Promega (Madison, WI, USA), according to the manufacturer’s protocol. The luminescent ATP assays are based on a luciferase enzymatic reaction which uses ATP from viable cells to generate photons. For this assay, the cells were incubated with the compounds under investigation for 24 h. After treatment, the cells were equilibrated to room temperature for 30 min, luciferase + luciferin substrate was added, and the samples were analyzed with a Fluoroscan Ascent FL (Thermo Fisher Scientific, Waltham, MA, USA). The IC50 values were calculated by plotting the percentage inhibition against the logarithm of the inhibitor concentration (at least five points).

[2] = test system: LPS-induced NF-κB activity in THP1-Blue cells; assay: Inhibition of LPS-induced NF-κB transcriptional activity, alkaline phosphatase reporter, THP1-Blue cells; assay type: cell-based, human; settings: for IC50: LPS-induced NF-κB activity, human THP1-Blue cells, N.A. = no activity at 50 µM; for Observed class for inhibition of NF-κB activity: experimentally observed, Active or N.A.; for Inhibition of LPS-induced NF-κB activity (in words): THP1-Blue cells
Method: as §1
The activation of NF-κB was measured using an alkaline phosphatase reporter assay in human monocytic THP1-Blue cells stably transfected with a secreted embryonic alkaline phosphatase gene that is under the control of a promoter inducible by the NF-κB. The THP1-Blue cells (2 × 10^5 cells/well) were pretreated with the test compound or DMSO for 30 min, followed by an addition of 250 ng/mL LPS for 24 h. Alkaline phosphatase activity was determined in cell supernatants using a QUANTI-Blue mix (InvivoGen) and measured at 655 nm and compared with positive control samples (LPS).

[3] = Cytotoxicity, CellTiter-Glo, MonoMac-6 cells; assay type: cell-based, human; settings: human, MonoMac-6 cells
Method: as §1, §2

[4] = test system: LPS-induced IL-6 production in MonoMac-6 cells; assay: Inhibition of LPS-induced IL-6 production in MonoMac-6 cells (ELISA); assay type: cell-based, human; settings: for IC50: Homo sapiens, MONO-MAC-6, read-out: Inhibition of IL-6 Production IC50 in MonoMac-6 Cells; for Inhibition of LPS-induced IL-6 production (in words): MonoMac-6 cells, 250 ng/mL LPS, 24 h
Method: as §1
A human IL-6 ELISA kit (BD Biosciences, San Jose, CA, USA) was used to measure IL-6 production. […] The cells were pretreated with the test compound or DMSO for 30 min, followed by addition of 250 ng/mL LPS for 24 h. The IC50 values for IL-6 production were calculated by plotting the percentage inhibition against the logarithm of the inhibitor concentration (at least five points).

FPR1 = molecular target: T1, FPR1 (Homo sapiens, UniProt P21462); settings: FPR1-transfected HL-60 cells, read-out: Ca2+ Mobilization FPR1 EC50 in HL-60 Cells, cited from earlier work
T1 construct: expressed in transfected cells; host or cells: HL-60 cells (FPR1-HL60)
T1 sequence (P21462 1-350): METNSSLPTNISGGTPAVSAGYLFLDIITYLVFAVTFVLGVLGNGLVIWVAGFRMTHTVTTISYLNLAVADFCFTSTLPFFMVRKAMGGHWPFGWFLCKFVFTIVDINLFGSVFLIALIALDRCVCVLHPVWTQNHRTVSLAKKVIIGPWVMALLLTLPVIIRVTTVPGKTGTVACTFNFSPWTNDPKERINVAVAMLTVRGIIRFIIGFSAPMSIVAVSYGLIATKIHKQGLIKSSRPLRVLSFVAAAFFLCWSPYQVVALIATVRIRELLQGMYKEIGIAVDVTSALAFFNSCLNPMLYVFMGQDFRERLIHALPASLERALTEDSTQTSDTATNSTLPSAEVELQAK

FPR2 = molecular target: T2, FPR2 (Homo sapiens, UniProt P25090); settings: FPR2-transfected HL-60 cells, read-out: Ca2+ Mobilization FPR2 EC50 in HL-60 Cells, cited from earlier work
T2 construct: expressed in transfected cells; host or cells: HL-60 cells (FPR2-HL60)
T2 sequence (P25090 1-351): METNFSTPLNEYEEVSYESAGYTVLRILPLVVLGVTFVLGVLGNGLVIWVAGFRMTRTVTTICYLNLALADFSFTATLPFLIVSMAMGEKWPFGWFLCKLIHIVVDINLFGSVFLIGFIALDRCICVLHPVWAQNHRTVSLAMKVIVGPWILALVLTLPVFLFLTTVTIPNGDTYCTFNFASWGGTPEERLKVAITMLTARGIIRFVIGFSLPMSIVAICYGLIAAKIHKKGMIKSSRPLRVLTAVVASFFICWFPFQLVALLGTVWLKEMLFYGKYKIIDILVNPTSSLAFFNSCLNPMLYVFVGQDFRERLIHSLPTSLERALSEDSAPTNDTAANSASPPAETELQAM

[5] = Table 3, as reported previously (see Table 1)

COc1cccc(Cc2cc(C)nn(CC(=O)Nc3cccc(Br)c3)c2=O)c1 [Compound 2]
IC50 at 24 h [1]: > 50 µM
IC50 ([2]; Homo sapiens): 44.5 ± 2.5 µM
Observed class for inhibition of NF-κB activity [2]: Active
IC50 at 24 h [3]: > 50 µM
IC50 [4]: 30.7 ± 3.6 µM
Inhibition of LPS-induced IL-6 production (in words) [4]: inhibitors of IL-6 production

COc1cccc(Cc2cc(C(C)C)nn(CC(=O)Nc3ccc(Br)cc3)c2=O)c1 [Compound 10]
IC50 at 24 h [1]: > 50 µM
IC50 ([2]; Homo sapiens): 22 ± 1.7 µM
Observed class for inhibition of NF-κB activity [2]: Active
IC50 at 24 h [3]: > 50 µM
IC50 [4]: 8.7 ± 1.6 µM

Cc1cc(Cc2cccc(Cl)c2)c(=O)n(CC(=O)Nc2ccc(I)cc2)n1 [Compound 23]
IC50 at 24 h [1]: > 50 µM
IC50 ([2]; Homo sapiens): 7.1 ± 2 µM
Observed class for inhibition of NF-κB activity [2]: Active
IC50 at 24 h [3]: > 50 µM
IC50 [4]: 13.1 ± 0.3 µM

COc1ccc(-c2cc(Cc3cccc(OC)c3)c(=O)n(CC(=O)Nc3ccc(F)cc3)n2)cc1 [Compound 38]
IC50 at 24 h [1]: > 50 µM
IC50 ([2]; Homo sapiens): 19.6 ± 4.3 µM
Observed class for inhibition of NF-κB activity [2]: Active
EC50 (FPR1; agonist activity from Table 1): > 50 µM
EC50 (FPR1; [5]): > 50 µM
IC50 at 24 h [3]: > 50 µM
IC50 [4]: 20.3 ± 1.8 µM
Inhibition of LPS-induced IL-6 production (in words) [4]: inhibitors of IL-6 production
EC50 (FPR2; agonist activity from Table 1): > 50 µM
EC50 (FPR2; [5]): > 50 µM

COc1cccc(Cc2cc(-c3ccc(Cl)cc3)nn(CC(=O)Nc3ccc(F)cc3)c2=O)c1 [Compound 42]
IC50 at 24 h [1]: > 50 µM
IC50 ([2]; Homo sapiens): 22.5 ± 2.3 µM
Inhibition of LPS-induced NF-κB activity (in words) ([2]; 250 ng/mL LPS, 24 h): active
EC50 (FPR1; agonist activity from Table 1): > 50 µM
EC50 (FPR1; [5]): > 50 µM
IC50 at 24 h [3]: > 50 µM
IC50 [4]: 35.6 ± 3.1 µM
Inhibition of LPS-induced IL-6 production (in words) [4]: inhibitors of IL-6 production
EC50 (FPR2; agonist activity from Table 1): > 50 µM
EC50 (FPR2; [5]): > 50 µM

COc1cccc(Cc2cc(-c3ccc(C)cc3)nn(CC(=O)Nc3ccc(F)cc3)c2=O)c1 [Compound 46]
IC50 at 24 h [1]: > 50 µM
IC50 ([2]; Homo sapiens): 8.2 ± 1.2 µM
Inhibition of LPS-induced NF-κB activity (in words) ([2]; 250 ng/mL LPS, 24 h): active
EC50 (FPR1; agonist activity from Table 1): > 50 µM
EC50 (FPR1; [5]): > 50 µM
IC50 at 24 h [3]: > 50 µM
IC50 [4]: > 50 µM
Inhibition of LPS-induced IL-6 production (in words) [4]: inhibitors of IL-6 production
EC50 (FPR2; agonist activity from Table 1): > 50 µM
EC50 (FPR2; [5]): > 50 µM

COc1cccc(Cc2cc(-c3ccc(F)cc3)nn(CC(=O)Nc3ccc(F)cc3)c2=O)c1 [Compound 47]
IC50 at 24 h [1]: > 50 µM
IC50 ([2]; Homo sapiens): 3.4 ± 0.2 µM
Inhibition of LPS-induced NF-κB activity (in words) ([2]; 250 ng/mL LPS, 24 h): active
EC50 (FPR1; agonist activity from Table 1): > 50 µM
EC50 (FPR1; [5]): > 50 µM
IC50 at 24 h [3]: > 50 µM
IC50 [4]: 18.8 ± 2.9 µM
Inhibition of LPS-induced IL-6 production (in words) [4]: inhibitors of IL-6 production
EC50 (FPR2; agonist activity from Table 1): > 50 µM
EC50 (FPR2; [5]): > 50 µM

CCCCOc1ccc(-c2c(OC)cnn(Cc3ccc(OC)cc3)c2=O)cc1 [Compound 109]
IC50 at 24 h [1]: > 50 µM
IC50 ([2]; Homo sapiens): 31.3 ± 1.6 µM
Observed class for inhibition of NF-κB activity [2]: Active
EC50 (FPR1; agonist activity from Table 1): > 50 µM
EC50 (FPR2; agonist activity from Table 1): > 50 µM

CC1CC(c2ccccc2)=NN(CC(=O)Nc2ccc(F)cc2)C1=O (centres unmarked) [Compound 122]
IC50 at 24 h [1]: > 50 µM
IC50 ([2]; Homo sapiens): 46.3 ± 2.4 µM
EC50 (FPR1; agonist activity from Table 1): > 50 µM
EC50 (FPR2; agonist activity from Table 1): > 50 µM

CC1CC(c2ccccc2)=NN(CC(=O)Nc2ccc(Br)cc2)C1=O (centres unmarked) [Compound 124]
IC50 at 24 h [1]: > 50 µM
IC50 ([2]; Homo sapiens): 42.7 ± 0.3 µM
EC50 (FPR1; agonist activity from Table 1): 19.5 µM
EC50 (FPR2; agonist activity from Table 1): 10.7 µM

COc1cccc(-c2cc(C#N)c(=O)n(CC(=O)Nc3ccc(Br)cc3)c2C)c1 [Compound 141]
IC50 at 24 h [1]: > 50 µM
IC50 ([2]; Homo sapiens): 15.3 ± 4.9 µM
Observed class for inhibition of NF-κB activity [2]: Active
IC50 at 24 h [3]: > 50 µM
IC50 [4]: 24.5 ± 0.8 µM

Cc1ccc(-n2ccc(=O)n(CC(=O)Nc3ccc(Br)cc3)c2=O)cc1 [Compound 149]
IC50 at 24 h [1]: > 50 µM
IC50 ([2]; Homo sapiens): 43 ± 3.9 µM
Observed class for inhibition of NF-κB activity [2]: Active
EC50 (FPR1; agonist activity from Table 1): 13.6 µM
EC50 (FPR2; agonist activity from Table 1): 14.9 µM

COc1ccc(Nc2c(C#N)cnn2CC(=O)Nc2ccc(Br)cc2)cc1 [Compound 156]
IC50 at 24 h [1]: > 50 µM
IC50 ([2]; Homo sapiens): 25 ± 0.4 µM
Observed class for inhibition of NF-κB activity [2]: Active
EC50 (FPR1; agonist activity from Table 1): > 50 µM
EC50 (FPR2; agonist activity from Table 1): > 50 µM

COc1cccc(-c2nn(CC(=O)Nc3ccc(Br)cc3)c(C)c2C#N)c1 [Compound 160]
IC50 at 24 h [1]: > 50 µM
IC50 [2]: 28.8 ± 2 µM
Observed class for inhibition of NF-κB activity [2]: Active
EC50 (FPR1; agonist activity from Table 1): 8.2 µM
EC50 (FPR2; agonist activity from Table 1): 4.8 µM

COc1cccc(Nc2cn(-c3ccccc3)n(CC(=O)Nc3ccc(Br)cc3)c2=O)c1 [Compound 164]
IC50 at 24 h [1]: > 50 µM
IC50 ([2]; Homo sapiens): 35.7 ± 1.9 µM
Observed class for inhibition of NF-κB activity [2]: Active
EC50 (FPR1; agonist activity from Table 1): 29 µM
EC50 (FPR2; agonist activity from Table 1): > 50 µM

O=C(Cn1c(-c2ccc(Cl)cc2)csc1=O)Nc1ccc(Br)cc1 [Compound 168]
IC50 at 24 h [1]: > 50 µM
IC50 ([2]; Homo sapiens): 43.4 ± 4.2 µM
Observed class for inhibition of NF-κB activity [2]: Active
EC50 (FPR1; agonist activity from Table 1): 2.8 µM
EC50 (FPR2; agonist activity from Table 1): 2.4 µM

N-formyl-Met-Leu-Phe [fMLF, reference compound]
Inhibition of LPS-induced NF-κB activity (in words) ([2]; peptide at 5 nM): did not inhibit
Inhibition of LPS-induced IL-6 production (in words) [4]: did not affect
